Data taken from patent US10174015B2, “Substituted heterocyclic derivative, preparation method and use thereof” (Xiamen University, priority 2014, dated 2019).
Read-outs that look alike come from different tables or passages of the source. Marks after values point to notes of the source that are not given here.

How the values were obtained:
[1] = test system: adjuvant-induced arthritis rat models; assay: Adjuvant-induced osteoarthritis pain, foot swelling degree; format: in vivo, rats; conditions: X ± S, n = 10, 10 mg/Kg
Experimental: Typical model for studying inflammatory pain medically was used to evaluate the therapeutic effects of compounds on inflammatory pain. 0.1 mL Freund's complete adjuvant was intradermally injected to toe of the left hind foot of the rats in each group to obtain adjuvant-induced arthritis rat models. Foot volume method was used to measure primary and secondary foot swelling degree (swelling degree=volume after inflammation−volume before inflammation), and polyarticular arthritis were scored (5 scoring grades: 0 represents no red swelling; 4 represents red swelling at all the paws including anklebone. The scores are accumulated according to the lesion degree of the rest three limbs not injected with adjuvant, and the highest score is 12). Before inflammation and at 6 h, 12 h, 18 h and 24 h after inflammation, Paw Volume Meter was used to measure the foot volume at the inflammatory side, and the swelling degree was calculated. The model can represent inflammatory pain including, but not only limited to: osteoarthritis pain and fibromyalgia syndrome, inflammatory pain of rheumatic and rheumatoid arthritis, inflammatory pain of endometriosis, inflammatory toothache, ankylosing spondylitis pain, and gouty arthritis pain.

[2] = test system: zebrafish embryos; format: in vivo; conditions: for Death number (72 h) / Hatching number (72 h) / Unhatching number (72 h): n = 30
Experimental: Fertilized eggs (donated by Zebrafish Research Group, School of Life Sciences, Xiamen University) were incubated in freshly prepared zebrafish embryo culture medium, which was replaced by fresh culture medium every day, and cultured in 28.5° C. incubator. Pure water was placed in the incubator to ensure a certain humidity in the culture environment. The formulation for zebrafish embryo culture medium was following: 5 mM NaCl, 0.17 mM KCl, 0.33 mM CaCl2, 0.33 mM MgSO4, 10-5% methylene blue. The culture medium was prepared with pure water. For example, NaCl: 292.2 mg, KCl: 12.68 mg, CaCl2: 36.63 mg, MgSO4: 39.72 mg, and methylene blue: 0.1 μL were needed for the preparation of 1 L culture medium.
7 Groups were set for each test compound, including 5 experimental groups relating to the test compound at different concentrations (solutions containing the test compound at different concentrations were prepared by using zebrafish embryo culture medium, wherein the concentrations were 10 mg/L, 3 mg/L, 1 mg/L, 0.3 mg/L, 0.1 mg/L), 1 solvent control group (DMSO) and 1 blank control group. The positive control drug was OTC analgesic ibuprofen at concentrations as described above. A 96-well cell culture plate was used to perform the experiment, three wells in parallel were used for each experimental group, and 10 fish eggs were contained in each well.
Culture medium containing a test compound was prepared, and the culture medium was added to a 96-well plate in advance, and each fertilized egg (by reference to the experimental method in OECD No. 212 document, fertilized eggs, which developed normally within 2 h after fertilization, were selected and subjected to exposure. Transparent fish eggs visible to naked eye were normally fertilized, while white fish eggs were dead and discarded. After the selection, the normally fertilized eggs had begun to divide as observed under microscope) was then independently placed in a different well, and cultured in the culture medium containing a test compound at a different concentration. Embryo development status at different stages was observed and photographed with invert microscope, including: […]
II. Hatching number and death number were counted at 72 h after fertilization, and hatching rate and mortality were calculated; […]
(§1) V. Heartbeat of young fishes (times/min) was recorded at 72 h and 96 h after fertilization (Recording method: heartbeat of young fishes could be clearly observed under microscope, and the number of heartbeats was recorded for 30 s).

[3] = test system: zebrafish embryos; format: in vivo; conditions: for Death number (72 h): n = 30; for Body length (72 h) / Hatching number (72 h) / Heartbeat (72 h) / Unhatching number (72 h) / hatching rate: zebrafish, in vivo
Experimental: By the same method described above, zebrafish fertilized eggs were cultured. 7 Groups were set for each test compound, including 5 experimental groups relating to the test compound at different concentrations (solutions containing the test compound at different concentrations were prepared by using zebrafish embryo culture medium, wherein the concentrations were 100 mg/L, 10 mg/L, 1 mg/L, 0.1 mg/L, 0.01 mg/L), 1 solvent control group (DMSO) and 1 blank control group. The fertilized eggs were placed and cultured in a 28.5° C. incubator, a certain humidity was ensured in the culture environment. Culture medium containing a test compound was prepared, and the culture medium was added to a 96-well plate in advance, and each fertilized egg (by reference to the experimental method in OECD No. 212 document, fertilized eggs, which developed normally within 24 h after fertilization, were selected and subjected to exposure. Transparent fish eggs visible to naked eye were normally fertilized, while white fish eggs were dead and discarded. After the selection, the normally fertilized eggs had begun to divide as observed under microscope) was then independently placed in a different well, and cultured in the culture medium containing a test compound at a different concentration. Embryo development status at different stages were observed and photographed with invert microscope, including:
I. Morphological observation: the developmental states of fertilized eggs (yolk being coagulated or not, eye spot, pericardial sac being edematous or not, bloodstream being existing or not, tail development status, and the like) were observed and photographed at 48 h, 72 h, and 96 h;
II. Hatching number and death number were counted at 72 h after fertilization, and hatching rate and mortality were calculated;
III. Body length of the hatched young fishes at 72 h was measured (measured after photographing with invert microscope); […]
as §1

[4] = test system: SNI neuropathic pain; assay: Neuropathic pain mouse model induced by spared nerve injury (SNI); format: in vivo, C57BL/6 mice; conditions: SNI mice, 10 mg/kg i.p. (gabapentin 100 mg/kg), 4 h after administration
Experimental: In the Experimental example, compounds to be evaluated or compounds to be tested or test compounds used are the Compounds 1-46 prepared in the Examples according to the invention. In the Experimental example, all the agents for injection, including compounds to be evaluated or compounds to be tested or test compounds, and positive control drug, were dissolved in a mixed solvent of PEG400:Tween 80:normal saline (at a volume ratio of 5:5:90), at a concentration of 5 mg/mL.
Neuropathic pain mouse model induced by spared nerve injury (SNI) is a common animal model for studying neuropathic pain medically. The invention uses the model to evaluate the therapeutic effects of the compounds on neuropathic pain, wherein the model can represent peripheral neuropathic pain including, but not limited to post-herpetic neuralgia, pain caused by diabetic perineuropathy, neurothlipsis and exudation caused by tumor, lumbar surgery failure syndrome, neuropathic pain caused by lumbar disc protrusion, postpartum neuralgia, trigeminal neuralgia, chemotherapy-induced multiple neuropathic pain, post-radiotherapy plexopathy, and radicular neuralgia.
C57BL/6 mice (purchased from Shanghai SLAC Laboratory Animal Co., Ltd) were anesthetized by intraperitoneal injection with pentobarbital sodium (40 mg/kg), and skin from knee joint to gluteal region was subjected to skin preparation and disinfection. After the mice were fixed, the knee joint part was cut about 1 cm longitudinally with bistoury, and muscle tissues were separated by blunt dissection to expose sciatic nerve. The tibial and common peroneal nerve branches of sciatic nerve stem were cut off carefully, and the cut was then stitched up. The mice was placed in a clean observation cage. In the sham-operation group, only sciatic nerve was exposed without cutting the tibial and common peroneal nerve branches. From the day before the experiment to 24 h after the operation, the plantar edges of the mice were stimulated everyday by […] (Ugo Basile Company (Italy), Product ID: 37450), and data was collected automatically to obtain the threshold value of mice to mechanical stimulation. […] The positive control drug gabapentin was administered at a dose of 100 mg/kg. All the agents to be injected were dissolved in a mixed solvent of PEG400:Tween 80:normal saline (at a volume ratio of 5:5:90), at a concentration of 5 mg/mL. By comparing the threshold values (the acting force of when the mouse retracting the paw) at different administration time in different administration groups, the compound was evaluated for its analgesic effect on neuropathic pain.

`COc1ccc2c(c1)c(CC(=O)O)c(C)n2C(=O)c1ccc(Cl)cc1` [indometacin, reference compound] was tested, and the “Foot swelling degree after inflammation” value ([1]; 6 h) was 0.57 ± 0.16^c mL, the “Foot swelling degree after inflammation” value ([1]; 12 h) was 0.96 ± 0.21^c mL and the “Foot swelling degree after inflammation” value ([1]; 18 h) was 1.32 ± 0.22^b mL. The “Foot swelling degree after inflammation” value ([1]; 24 h) was 1.08 ± 0.26^c mL.

With `CC(C)Cc1ccc(C(C)C(=O)O)cc1` (centres unmarked) [ibuprofen, reference compound] the “Body length (72 h)” value ([2]; 0.1 mg/L) was 3.94 ± 0.14 mm, the “Heartbeat (72 h)” value ([2]; 0.1 mg/L) was 125 ± 2.40 per min and the “Death number (72 h)” value ([2]; 0.1 mg/L) was 8. For the same molecule, the “Hatching number (72 h)” value ([2]; 0.1 mg/L) was 22, the “Unhatching number (72 h)” value ([2]; 0.1 mg/L) was 0 and the “Body length (72 h)” value ([2]; 0.3 mg/L) was 3.95 ± 0.09 mm. The “Heartbeat (72 h)” value ([2]; 0.3 mg/L) was 125 ± 2.48 per min, the “Death number (72 h)” value ([2]; 0.3 mg/L) was 8 and the “Hatching number (72 h)” value ([2]; 0.3 mg/L) was 20. For the same molecule, the “Unhatching number (72 h)” value ([2]; 0.3 mg/L) was 2, the “Body length (72 h)” value ([2]; 1 mg/L) was 3.77 ± 0.18 mm and the “Heartbeat (72 h)” value ([2]; 1 mg/L) was 126 ± 2.56 per min. For the same molecule, the hatching rate ([2]; 1 mg/L, 72 h) was 56.67%, the “Death number (72 h)” value ([2]; 1 mg/L) was 13 and the “Hatching number (72 h)” value ([2]; 1 mg/L) was 17. The “Unhatching number (72 h)” value ([2]; 1 mg/L) was 0, the “Death number (72 h)” value ([2]; 3 mg/L) was 28 and the “Hatching number (72 h)” value ([2]; 3 mg/L) was 0. The “Unhatching number (72 h)” value ([2]; 3 mg/L) was 2, the “Death number (72 h)” value ([2]; 10 mg/L) was 30 and the “Hatching number (72 h)” value ([2]; 10 mg/L) was 0. For the same molecule, the “Unhatching number (72 h)” value ([2]; 10 mg/L) was 0, the “Death number (72 h)” value ([3]; 0.01 mg/L) was 0 and the “Death number (72 h)” value ([3]; 0.1 mg/L) was 0. For the same molecule, the “Death number (72 h)” value ([3]; 1 mg/L) was 2, the mortality ([3]; 10 mg/L, 72 h) was 100% and the “Death number (72 h)” value ([3]; 10 mg/L) was 30. For the same molecule, the “observation of zebrafish embryo development” value ([3]; 100 mg/L, 48 h) was “all the zebrafish embryos died”, the “Death number (72 h)” value ([3]; 100 mg/L) was 30 and the “Body length (72 h)” value ([3]; 72 h, 0.01 mg/L) was 3.97 ± 0.06 mm. For the same molecule, the “Hatching number (72 h)” value ([3]; 72 h, 0.01 mg/L) was 25, the “Heartbeat (72 h)” value ([3]; 72 h, 0.01 mg/L) was 125 ± 2.16 per min and the “Unhatching number (72 h)” value ([3]; 72 h, 0.01 mg/L) was 5. For the same molecule, the “Body length (72 h)” value ([3]; 72 h, 0.1 mg/L) was 3.88 ± 0.15 mm, the “Hatching number (72 h)” value ([3]; 72 h, 0.1 mg/L) was 22 and the “Heartbeat (72 h)” value ([3]; 72 h, 0.1 mg/L) was 124 ± 2.25 per min. The “Unhatching number (72 h)” value ([3]; 72 h, 0.1 mg/L) was 8, the “Body length (72 h)” value ([3]; 72 h, 1 mg/L) was 3.97 ± 0.08 mm and the “Hatching number (72 h)” value ([3]; 72 h, 1 mg/L) was 17. For the same molecule, the “Heartbeat (72 h)” value ([3]; 72 h, 1 mg/L) was 124 ± 1.67 per min, the “Unhatching number (72 h)” value ([3]; 72 h, 1 mg/L) was 11 and the hatching rate ([3]; 72 h, 1 mg/L) was 56.7%. For the same molecule, the “Hatching number (72 h)” value ([3]; 72 h, 10 mg/L) was 0, the “Unhatching number (72 h)” value ([3]; 72 h, 10 mg/L) was 0 and the hatching rate ([3]; 72 h, 10 mg/L) was 0%. For the same molecule, the “Hatching number (72 h)” value ([3]; 72 h, 100 mg/L) was 0 and the “Unhatching number (72 h)” value ([3]; 72 h, 100 mg/L) was 0.

`NCC1(CC(=O)O)CCCCC1` [gabapentin, reference compound] was tested, and the “effect of inhibiting central neuropathic pain” value [4] was “disappeared gradually”.

`O=C(Cc1cccc(-c2ccccc2)c1)N1CCOC1=O` [Compound 14, 3-Biphenylacetyl Oxazolidinone] was tested, and the “Foot swelling degree after inflammation” value ([1]; 6 h) was 0.75 ± 0.11^c mL, the “Foot swelling degree after inflammation” value ([1]; 12 h) was 1.06 ± 0.19^c mL and the “Foot swelling degree after inflammation” value ([1]; 18 h) was 1.43 ± 0.25^b mL. For the same molecule, the “Foot swelling degree after inflammation” value ([1]; 24 h) was 1.36 ± 0.18^b mL.
